According to the supplement of paper PMC10307832:

What was measured:
Assay in all cases: relative viability (nuclei count vs DMSO), 5 days (fraction); higher = more cells survive
LU99A = tested on: LU99A
Method in brief: (§1)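 Lung cancer cell lines were pin-tool dosed in 1536-well plates on the day after seeding, with either a lone drug or a fixed anchor-drug dose plus five library-drug doses (not always all listed) in √10 steps. Nuclei were counted on 4× images after 5 days. Relative viability is the ratio of treated-well to vehicle-well nuclei counts, with each value a median of duplicate plates.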

NCI-H1944 = tested on: NCI-H1944
Method in brief: as §1

LCLC-103H = tested on: LCLC-103H
Method in brief: as §1

NCI-H650 = tested on: NCI-H650
Method in brief: as §1

NCI-H2023 = tested on: NCI-H2023
Method in brief: as §1

NCI-H1793 = tested on: NCI-H1793
Method in brief: as §1

NCI-H838 = tested on: NCI-H838
Method in brief: as §1

SK-MES-1 = tested on: SK-MES-1
Method in brief: as §1

EPLC-272H = tested on: EPLC-272H
Method in brief: as §1

EMC-BAC-2 = tested on: EMC-BAC-2
Method in brief: as §1

HCC-827 = tested on: HCC-827
Method in brief: as §1

NCI-H1395 = tested on: NCI-H1395
Method in brief: as §1

NCI-H1563 = tested on: NCI-H1563
Method in brief: as §1

H3255 = tested on: H3255
Method in brief: as §1

COR-L23 = tested on: COR-L23
Method in brief: as §1

NCI-H520 = tested on: NCI-H520
Method in brief: as §1

NCI-H1651 = tested on: NCI-H1651
Method in brief: as §1

ChaGo-K-1 = tested on: ChaGo-K-1
Method in brief: as §1

NCI-H2085 = tested on: NCI-H2085
Method in brief: as §1

NCI-H2087 = tested on: NCI-H2087
Method in brief: as §1

NCI-H2405 = tested on: NCI-H2405
Method in brief: as §1

Nc1ccn([C@@H]2O[C@H](CO)[C@@H](O)[C@@H]2O)c(=O)n1 [Cytarabine] + COc1cc2c(Oc3ccc(NC(=O)C4(C(=O)Nc5ccc(F)cc5)CC4)cc3F)ccnc2cc1OCCCN1CCOCC1 [Foretinib] (partner 0.25 µM)
relative viability (LU99A; first compound 0.005 µM): 0.762
relative viability (LU99A; first compound 0.01581 µM): 0.773
relative viability (LU99A; first compound 0.05 µM): 0.809
relative viability (LU99A; first compound 0.1581 µM): 0.74
relative viability (LU99A; first compound 0.5 µM): 0.648
relative viability (NCI-H1944; first compound 0.005 µM): 0.633
relative viability (NCI-H1944; first compound 0.01581 µM): 0.438
relative viability (NCI-H1944; first compound 0.05 µM): 0.331
relative viability (NCI-H1944; first compound 0.1581 µM): 0.223
relative viability (NCI-H1944; first compound 0.5 µM): 0.168
relative viability (LCLC-103H; first compound 0.005 µM): 0.849
relative viability (LCLC-103H; first compound 0.01581 µM): 0.817
relative viability (LCLC-103H; first compound 0.05 µM): 0.96
relative viability (LCLC-103H; first compound 0.1581 µM): 0.604
relative viability (LCLC-103H; first compound 0.5 µM): 0.57
relative viability (NCI-H650; first compound 0.005 µM): 0.857
relative viability (NCI-H650; first compound 0.01581 µM): 0.642
relative viability (NCI-H650; first compound 0.05 µM): 0.504
relative viability (NCI-H650; first compound 0.1581 µM): 0.283
relative viability (NCI-H650; first compound 0.5 µM): 0.227
relative viability (NCI-H2023; first compound 0.005 µM): 0.535
relative viability (NCI-H2023; first compound 0.01581 µM): 0.502
relative viability (NCI-H2023; first compound 0.05 µM): 0.158
relative viability (NCI-H2023; first compound 0.1581 µM): 0.101
relative viability (NCI-H2023; first compound 0.5 µM): 0.0682
relative viability (NCI-H1793; first compound 0.005 µM): 0.812
relative viability (NCI-H1793; first compound 0.01581 µM): 0.684
relative viability (NCI-H1793; first compound 0.05 µM): 0.683
relative viability (NCI-H1793; first compound 0.1581 µM): 0.545
relative viability (NCI-H1793; first compound 0.5 µM): 0.494
relative viability (NCI-H838; first compound 0.005 µM): 1.13
relative viability (NCI-H838; first compound 0.01581 µM): 1.08
relative viability (NCI-H838; first compound 0.05 µM): 0.939
relative viability (NCI-H838; first compound 0.1581 µM): 0.486
relative viability (NCI-H838; first compound 0.5 µM): 0.301
relative viability (SK-MES-1; first compound 0.005 µM): 0.763
relative viability (SK-MES-1; first compound 0.01581 µM): 0.704
relative viability (SK-MES-1; first compound 0.05 µM): 0.457
relative viability (SK-MES-1; first compound 0.1581 µM): 0.336
relative viability (SK-MES-1; first compound 0.5 µM): 0.304
relative viability (EPLC-272H; first compound 0.005 µM): 0.639
relative viability (EPLC-272H; first compound 0.01581 µM): 0.477
relative viability (EPLC-272H; first compound 0.05 µM): 0.461
relative viability (EPLC-272H; first compound 0.1581 µM): 0.196
relative viability (EPLC-272H; first compound 0.5 µM): 0.234
relative viability (EMC-BAC-2; first compound 0.005 µM): 0.954
relative viability (EMC-BAC-2; first compound 0.01581 µM): 0.831
relative viability (EMC-BAC-2; first compound 0.05 µM): 0.305
relative viability (EMC-BAC-2; first compound 0.1581 µM): 0.282
relative viability (EMC-BAC-2; first compound 0.5 µM): 0.226
relative viability (HCC-827; first compound 0.005 µM): 0.721
relative viability (HCC-827; first compound 0.01581 µM): 0.424
relative viability (HCC-827; first compound 0.05 µM): 0.368
relative viability (HCC-827; first compound 0.1581 µM): 0.169
relative viability (HCC-827; first compound 0.5 µM): 0.177
relative viability (NCI-H1395; first compound 0.005 µM): 0.917
relative viability (NCI-H1395; first compound 0.01581 µM): 0.757
relative viability (NCI-H1395; first compound 0.05 µM): 0.548
relative viability (NCI-H1395; first compound 0.1581 µM): 0.492
relative viability (NCI-H1395; first compound 0.5 µM): 0.413
relative viability (NCI-H1563; first compound 0.005 µM): 0.869
relative viability (NCI-H1563; first compound 0.01581 µM): 0.875
relative viability (NCI-H1563; first compound 0.05 µM): 0.869
relative viability (NCI-H1563; first compound 0.1581 µM): 0.846
relative viability (NCI-H1563; first compound 0.5 µM): 0.73
relative viability (H3255; first compound 0.005 µM): 0.889
relative viability (H3255; first compound 0.01581 µM): 0.905
relative viability (H3255; first compound 0.05 µM): 0.628
relative viability (H3255; first compound 0.1581 µM): 0.665
relative viability (H3255; first compound 0.5 µM): 0.531
relative viability (COR-L23; first compound 0.005 µM): 0.958
relative viability (COR-L23; first compound 0.01581 µM): 0.966
relative viability (COR-L23; first compound 0.05 µM): 0.612
relative viability (COR-L23; first compound 0.1581 µM): 0.206
relative viability (COR-L23; first compound 0.5 µM): 0.137
relative viability (NCI-H520; first compound 0.005 µM): 0.739
relative viability (NCI-H520; first compound 0.01581 µM): 0.795
relative viability (NCI-H520; first compound 0.05 µM): 0.974
relative viability (NCI-H520; first compound 0.1581 µM): 0.621
relative viability (NCI-H520; first compound 0.5 µM): 0.589
relative viability (NCI-H1651; first compound 0.005 µM): 0.769
relative viability (NCI-H1651; first compound 0.01581 µM): 0.808
relative viability (NCI-H1651; first compound 0.05 µM): 0.723
relative viability (NCI-H1651; first compound 0.1581 µM): 0.583
relative viability (NCI-H1651; first compound 0.5 µM): 0.372
relative viability (ChaGo-K-1; first compound 0.005 µM): 0.734
relative viability (ChaGo-K-1; first compound 0.01581 µM): 0.59
relative viability (ChaGo-K-1; first compound 0.05 µM): 0.391
relative viability (ChaGo-K-1; first compound 0.1581 µM): 0.259
relative viability (ChaGo-K-1; first compound 0.5 µM): 0.251
relative viability (NCI-H2085; first compound 0.005 µM): 0.994
relative viability (NCI-H2085; first compound 0.01581 µM): 0.847
relative viability (NCI-H2085; first compound 0.05 µM): 0.75
relative viability (NCI-H2085; first compound 0.1581 µM): 0.555
relative viability (NCI-H2085; first compound 0.5 µM): 0.475
relative viability (NCI-H2087; first compound 0.005 µM): 1.11
relative viability (NCI-H2087; first compound 0.01581 µM): 0.834
relative viability (NCI-H2087; first compound 0.05 µM): 0.851
relative viability (NCI-H2087; first compound 0.1581 µM): 0.491
relative viability (NCI-H2087; first compound 0.5 µM): 0.253
relative viability (NCI-H2405; first compound 0.005 µM): 1.02
relative viability (NCI-H2405; first compound 0.01581 µM): 0.908
relative viability (NCI-H2405; first compound 0.05 µM): 0.747
relative viability (NCI-H2405; first compound 0.1581 µM): 0.618
relative viability (NCI-H2405; first compound 0.5 µM): 0.493
